Results on six compounds are retold here after PubChem BioAssay AID1745844 (Carcinogenic Potency Database (CPDB), 2022).

Calls of active or inactive are those of the source. How the calls were made is not given here.

The test system of the data set is rodent lifetime carcinogenesis bioassay, tumor incidence TD50. The experiment in a line: carcinogenic potency in animals, long-term in vivo studies, CPDB compilation (AID 1745844).

Take `ClCC(Cl)Cl`: the TD50 was 47.6 mg/kg/day (mouse, strain B6C3F1, females, by gavage, site: adrenal gland + liver, lesion: pheochromocytoma + hepatocellular carcinoma, dosed 78 weeks, study length 90 weeks); 248 mg/kg/day (mouse, strain B6C3F1, females, by gavage, site: adrenal gland, lesion: pheochromocytoma, dosed 78 weeks, study length 90 weeks); 52.9 mg/kg/day (mouse, strain B6C3F1, females, by gavage, site: any site (literature study), lesion: several types, types named in the paper, dosed 78 weeks, study length 90 weeks); 47.6 mg/kg/day (mouse, strain B6C3F1, females, by gavage, site: liver, lesion: hepatocellular adenoma + hepatocellular carcinoma + neoplastic nodule, dosed 78 weeks, study length 90 weeks); 47.6 mg/kg/day (mouse, strain B6C3F1, females, by gavage, site: liver, lesion: hepatocellular carcinoma, dosed 78 weeks, study length 90 weeks); 787 mg/kg/day (mouse, strain B6C3F1, females, by gavage, site: lung, lesion: alveolar/bronchiolar adenoma + alveolar/bronchiolar carcinoma, dosed 78 weeks, study length 90 weeks). For the same compound, the TD50 was 65 mg/kg/day (mouse, strain B6C3F1, males, by gavage, site: adrenal gland + liver, lesion: pheochromocytoma + hepatocellular carcinoma, dosed 78 weeks, study length 90 weeks); 588 mg/kg/day (mouse, strain B6C3F1, males, by gavage, site: adrenal gland, lesion: pheochromocytoma, dosed 78 weeks, study length 90 weeks); 79.5 mg/kg/day (mouse, strain B6C3F1, males, by gavage, site: any site (literature study), lesion: several types, types named in the paper, dosed 78 weeks, study length 90 weeks); 65 mg/kg/day (mouse, strain B6C3F1, males, by gavage, site: liver, lesion: hepatocellular adenoma + hepatocellular carcinoma + neoplastic nodule, dosed 78 weeks, study length 90 weeks); 65 mg/kg/day (mouse, strain B6C3F1, males, by gavage, site: liver, lesion: hepatocellular carcinoma, dosed 78 weeks, study length 90 weeks); 1560 mg/kg/day (mouse, strain B6C3F1, males, by gavage, site: lung, lesion: alveolar/bronchiolar adenoma + alveolar/bronchiolar carcinoma, dosed 78 weeks, study length 90 weeks). Moreover, the TD50 (rat, strain Osborne-Mendel, females, by gavage, site: liver, lesion: hepatocellular adenoma + hepatocellular carcinoma + neoplastic nodule, dosed 78 weeks, study length 112 weeks) came out at 771 mg/kg/day. Moreover, the carcinogen call runs as follows: (rat, strain Osborne-Mendel, females, by gavage, site: any site (literature study), lesion: several types, types named in the paper, dosed 78 weeks, study length 112 weeks) “negative (inactive)”; (rat, strain Osborne-Mendel, males, by gavage, site: any site (literature study), lesion: several types, types named in the paper, dosed 78 weeks, study length 112 weeks) “negative (inactive)”.

For `CC(F)(Cl)Cl`, the TD50 reads like this: (rat, strain Sprague-Dawley, males, inhaled, site: any site (literature study), lesion: several types, types named in the paper, dosed 105 weeks, study length 105 weeks) 5790 mg/kg/day; (rat, strain Sprague-Dawley, males, inhaled, site: testis, lesion: interstitial-cell adenoma, dosed 105 weeks, study length 105 weeks) 5260 mg/kg/day.

Take `OCCOCCO`: the carcinogen call was “negative (inactive)” (rat, strain F344/DuCrj, females, in drinking water, site: any site (literature study), lesion: several types, types named in the paper, dosed 108 weeks, study length 108 weeks); “negative (inactive)” (rat, strain F344/DuCrj, females, in drinking water, site: liver, lesion: neoplastic nodule, dosed 108 weeks, study length 108 weeks); “negative (inactive)” (rat, strain F344/DuCrj, males, in drinking water, site: any site (literature study), lesion: several types, types named in the paper, dosed 108 weeks, study length 108 weeks). Besides, the TD50 is 34200 mg/kg/day (inactive) (rat, strain F344/DuCrj, males, in drinking water, site: liver, lesion: neoplastic nodule, dosed 108 weeks, study length 108 weeks) and 1660 mg/kg/day (rat, strain Osborne-Mendel, males, in feed, site: urinary bladder, lesion: several types, types named in the paper, dosed 104 weeks, study length 104 weeks).

On to `N#Cc1ccc(C2CCCc3cncn32)cc1` (stereo not given), for which the carcinogen call is, setting by setting: (rat, strain Sprague-Dawley, females, by gavage, site: any site (literature study), lesion: several types, types named in the paper, dosed 104 weeks, study length 104 weeks) “negative (inactive)”; (rat, strain Sprague-Dawley, females, by gavage, site: liver, lesion: several types, types named in the paper, dosed 104 weeks, study length 104 weeks) “negative (inactive)”; (rat, strain Sprague-Dawley, females, by gavage, site: mammary gland, lesion: several types, types named in the paper, dosed 104 weeks, study length 104 weeks) “negative (inactive)”; (rat, strain Sprague-Dawley, males, by gavage, site: liver, lesion: several types, types named in the paper, dosed 104 weeks, study length 104 weeks) “negative (inactive)”.

Consider `ClC(Cl)Br`, for which the TD50 (mouse, strain B6C3F1, females, by gavage, site: any site (literature study), lesion: several types, types named in the paper, dosed 102 weeks, study length 105 weeks) worked out at 62.9 mg/kg/day; the TD50 (mouse, strain B6C3F1, females, by gavage, site: liver, lesion: hepatocellular adenoma + hepatocellular carcinoma + neoplastic nodule, dosed 102 weeks, study length 105 weeks) was found to be 28.9 mg/kg/day; the TD50 (mouse, strain B6C3F1, females, by gavage, site: liver, lesion: hepatocellular adenoma + hepatocellular carcinoma, dosed 102 weeks, study length 105 weeks) was 28.9 mg/kg/day; the TD50 (mouse, strain B6C3F1, females, by gavage, site: liver, lesion: hepatocellular adenoma, dosed 102 weeks, study length 105 weeks) was 36 mg/kg/day; the TD50 (mouse, strain B6C3F1, females, by gavage, site: liver, lesion: hepatocellular carcinoma, dosed 102 weeks, study length 105 weeks) was 144 mg/kg/day; the TD50 (mouse, strain B6C3F1, females, by gavage, site: lung, lesion: alveolar/bronchiolar adenoma + alveolar/bronchiolar carcinoma, dosed 102 weeks, study length 105 weeks) came out at 644 mg/kg/day. Further, the TD50 is, setting by setting: (mouse, strain B6C3F1, females, by gavage, site: multiple organs + spleen, lesion: malignant lymphoma, histiocytic type, dosed 102 weeks, study length 105 weeks) 132 mg/kg/day; (mouse, strain B6C3F1, males, by gavage, site: kidney, lesion: tubular-cell adenocarcinoma, dosed 102 weeks, study length 104 weeks) 336 mg/kg/day; (mouse, strain B6C3F1, males, by gavage, site: kidney, lesion: tubular-cell adenoma + tubular-cell adenocarcinoma, dosed 102 weeks, study length 104 weeks) 137 mg/kg/day; (mouse, strain B6C3F1, males, by gavage, site: kidney, lesion: tubular-cell adenoma, dosed 102 weeks, study length 104 weeks) 215 mg/kg/day; (mouse, strain B6C3F1, males, by gavage, site: multiple organs, lesion: malignant lymphoma, lymphocytic type, dosed 102 weeks, study length 104 weeks) 74.2 mg/kg/day; (rat, strain Fischer 344, females, by gavage, site: colon + kidney, lesion: adenocarcinoma, NOS + adenomatous polyp, NOS + tubular-cell adenoma + tubular-cell adenocarcinoma, dosed 102 weeks, study length 104 weeks) 84.8 mg/kg/day. In addition, the TD50 runs as follows: (rat, strain Fischer 344, females, by gavage, site: colon, lesion: adenocarcinoma, NOS + adenomatous polyp, NOS, dosed 102 weeks, study length 104 weeks) 200 mg/kg/day; (rat, strain Fischer 344, females, by gavage, site: colon, lesion: adenocarcinoma, NOS, dosed 102 weeks, study length 104 weeks) 411 mg/kg/day; (rat, strain Fischer 344, females, by gavage, site: colon, lesion: adenomatous polyp, NOS, dosed 102 weeks, study length 104 weeks) 364 mg/kg/day; (rat, strain Fischer 344, females, by gavage, site: kidney, lesion: tubular-cell adenocarcinoma, dosed 102 weeks, study length 104 weeks) 272 mg/kg/day; (rat, strain Fischer 344, females, by gavage, site: kidney, lesion: tubular-cell adenoma + tubular-cell adenocarcinoma, dosed 102 weeks, study length 104 weeks) 143 mg/kg/day; (rat, strain Fischer 344, females, by gavage, site: kidney, lesion: tubular-cell adenoma, dosed 102 weeks, study length 104 weeks) 351 mg/kg/day. Moreover, the TD50 by setting is: (rat, strain Fischer 344, males, by gavage, site: any site (literature study), lesion: several types, types named in the paper, dosed 102 weeks, study length 104 weeks) 267 mg/kg/day; (rat, strain Fischer 344, males, by gavage, site: colon + kidney + rectum, lesion: adenocarcinoma, NOS + adenomatous polyp, NOS + tubular-cell adenoma + tubular-cell adenocarcinoma, dosed 102 weeks, study length 104 weeks) 30.3 mg/kg/day; (rat, strain Fischer 344, males, by gavage, site: colon + rectum, lesion: adenocarcinoma, NOS + adenomatous polyp, NOS, dosed 102 weeks, study length 104 weeks) 30.7 mg/kg/day; (rat, strain Fischer 344, males, by gavage, site: colon + rectum, lesion: adenocarcinoma, NOS, dosed 102 weeks, study length 104 weeks) 35.6 mg/kg/day; (rat, strain Fischer 344, males, by gavage, site: colon + rectum, lesion: adenomatous polyp, NOS, dosed 102 weeks, study length 104 weeks) 55.6 mg/kg/day; (rat, strain Fischer 344, males, by gavage, site: kidney, lesion: tubular-cell adenocarcinoma, dosed 102 weeks, study length 104 weeks) 213 mg/kg/day. For the same compound, the TD50 was 152 mg/kg/day (rat, strain Fischer 344, males, by gavage, site: kidney, lesion: tubular-cell adenoma + tubular-cell adenocarcinoma, dosed 102 weeks, study length 104 weeks); 583 mg/kg/day (rat, strain Fischer 344, males, by gavage, site: kidney, lesion: tubular-cell adenoma, dosed 102 weeks, study length 104 weeks); 747 mg/kg/day (rat, strain Fischer 344, males, by gavage, site: liver, lesion: hepatocellular adenoma + hepatocellular carcinoma + neoplastic nodule, dosed 102 weeks, study length 104 weeks); 366 mg/kg/day (rat, strain Fischer 344, males, by gavage, site: lung, lesion: alveolar/bronchiolar adenoma + alveolar/bronchiolar carcinoma, dosed 102 weeks, study length 104 weeks); 447 mg/kg/day (rat, strain Fischer 344, males, by gavage, site: lung, lesion: alveolar/bronchiolar adenoma, dosed 102 weeks, study length 104 weeks); 350 mg/kg/day (rat, strain Fischer 344, males, by gavage, site: tunica vaginalis, lesion: mesothelioma, NOS, dosed 102 weeks, study length 104 weeks). In addition, the TD50 is, setting by setting: (rat, strain Wistar, females, in drinking water, site: liver, lesion: neoplastic nodule, dosed 187 weeks, study length 187 weeks) 544 mg/kg/day; (rat, strain Wistar, males, in drinking water, site: pituitary gland, lesion: one or several types, types not named, dosed 182 weeks, study length 182 weeks) 911 mg/kg/day.

For the compound `CC(Oc1c(Cl)cccc1Cl)C1=NCCN1` (stereo not given), the TD50 (rat, strain Long-Evans, females, in feed, site: any site (literature study), lesion: one or several types, types not named, dosed 52 weeks, study length 52 weeks) is 2.3 mg/kg/day (inactive) and the TD50 (rat, strain Long-Evans, males, in feed, site: any site (literature study), lesion: one or several types, types not named, dosed 52 weeks, study length 52 weeks) was 2.3 mg/kg/day (inactive).
